# Source: patent publication US11807625B2, “Capsid inhibitors for the prevention of HIV” (Gilead Sciences, Inc., priority 2019, dated 2023)
# Where two headings read alike, the source gives them in different places.
# Assay: PK of compound of Formula (Ia) after single subcutaneous dose of solution formulations in beagle dogs
# Type: in vivo
# Description: Formulations containing the compound of Formula (Ia), or a pharmaceutically acceptable salt thereof, were prepared as solutions and optionally administered subcutaneously or intramuscularly to rats, rabbits, and/or dogs.
# (§1) A solution of about 400 mg/mL of the compound of Formula (Ia) having 17.00 w/w % water, 36.40 w/w % PEG 300, 35.20 w/w % of a sodium salt of a compound of Formula (Ia), 5.00 w/w % ethanol, and 6.40 w/w % poloxamer 188 was prepared. The solution was administered subcutaneously to male beagle dogs at a dose level of about 12 mg/kg and male Wistar Han rats at a dose level of about 50 mg/kg. The pharmacokinetic profiles were determined, and the results for dogs are summarized in Table and Table, while the results for rats are summarized in Table and Table below.
# as §1, with “500” for “400”, “14.06” for “17.00”, “30.12” for “36.40”
# A solution of about 300 mg/mL of the compound of Formula (Ia) having 23.33 w/w % water, 48.99 w/w % PEG 300, 26.47 w/w % of a sodium salt of a compound of Formula (Ia), and 1.21 w/w % poloxamer 188 was prepared. The solution was administered subcutaneously to male beagle dogs at a dose level of about 6 mg/kg and male Wistar Han rats at a dose level of about 50 mg/kg. The pharmacokinetic profiles were determined, and the results for dogs are summarized in Table and Table, while the results for rats are summarized in Table and Table below.
# as §1, with “18.80” for “17.00”, “40.25” for “36.40”, “34.38” for “35.20”, “1.57” for “6.40”
# as §1, with “500” for “400”, “16.29” for “17.00”, “34.88” for “36.40”, “41.92” for “35.20”, “1.91” for “6.40”
# as §1, with “20.90” for “17.00”, “44.72” for “36.40”, “and 34.38” for “35.20”, “(Ia)” for “(Ia), 5.00 w/w % ethanol, and 6.40 w/w % poloxamer 188”
# A solution of about 400 mg/mL of the compound of Formula (Ia) having 19.90 w/w % water, 42.59 w/w % PEG 300, 34.38 w/w % of a sodium salt of a compound of Formula (Ia), and 3.13 w/w % poloxamer 188 was prepared. The solution was administered subcutaneously to male beagle dogs at a dose level of about 12 mg/kg and male Wistar Han rats at a dose level of about 50 mg/kg. […]
# [1] = male, beagle, dog, plasma, sc, 6 mg/kg, individual dogs, SC 6 mg/kg, solution V, 300 mg/mL
# [2] = male, beagle, dog, plasma, sc, 6 mg/kg, mean, n = 3 dogs, SC 6 mg/kg, solution V, 300 mg/mL
# [3] = male, beagle, dog, plasma, sc, 6 mg/kg, mean ± SD, n = 3 dogs, SC 6 mg/kg, solution V, 300 mg/mL
structure (smiles),measurement,setting,value
CC(C)(C#Cc1ccc(-c2ccc(Cl)c3c(NS(C)(=O)=O)nn(CC(F)(F)F)c23)c([C@H](Cc2cc(F)cc(F)c2)NC(=O)Cn2nc(C(F)(F)F)c3c2C(F)(F)[C@@H]2C[C@H]32)n1)S(C)(=O)=O [compound of Formula (Ia)],Plasma concentration,"beagle dogs, SC 12 mg/kg, 400 mg/mL solution W (5.00% ethanol, 1.57% poloxamer 188), 1.00 h, animals #1-#3",BLQ
same,concentration at 3 h,[1],2.26 nM
same,concentration at 3 h,"male, beagle, dog, plasma, sc, 6 mg/kg, mean (dog #2 BLQ), SC 6 mg/kg, solution V, 300 mg/mL",2.75 nM
same,concentration at 8 h,[1],8.26 nM
same,concentration at 8 h,[2],10.4 nM
same,concentration at 24 h,[1],22.3 nM
same,concentration at 24 h,[2],23.5 nM
same,concentration at 48 h,[1],37.1 nM
same,concentration at 48 h,[2],31.5 nM
same,concentration at 72 h,[1],32.8 nM
same,concentration at 72 h,[2],31.3 nM
same,concentration at 96 h,[1],39.5 nM
same,concentration at 96 h,[2],32.6 nM
same,concentration at 168 h,[1],41.8 nM
same,concentration at 168 h,[2],39.2 nM
same,concentration at 336 h,[1],99.2 nM
same,concentration at 336 h,[2],129 nM
same,concentration at 504 h,[1],122 nM
same,concentration at 504 h,[2],151 nM
same,concentration at 672 h,[1],95.3 nM
same,concentration at 672 h,[2],122 nM
same,concentration at 840 h,[1],53.3 nM
same,concentration at 840 h,[2],58.9 nM
same,concentration at 1008 h,[1],29.1 nM
same,concentration at 1008 h,[2],30.2 nM
same,concentration at 1344 h,[1],26.9 nM
same,concentration at 1344 h,[2],23.8 nM
same,concentration at 1680 h,[1],13.7 nM
same,concentration at 1680 h,[2],12.3 nM
same,concentration at 2016 h,"male, beagle, dog, plasma, sc, 6 mg/kg, 2016 h, mean, n = 3 dogs, SC 6 mg/kg, solution V, 300 mg/mL",8.5 nM
same,concentration at 2352 h,[1],4.5 nM
same,concentration at 2352 h,[2],4.7 nM
same,concentration at 2688 h,[1],2.1 nM
same,concentration at 2688 h,[2],2.7 nM
same,concentration at 3024 h,[1],2.5 nM
same,concentration at 3024 h,[2],2.3 nM
same,concentration at 3360 h,[1],1.5 nM
same,concentration at 3360 h,[2],1.3 nM
same,AUC(0-inf),[3],113 ± 12 µM·h
same,Cmax,[3],155 ± 30 nM
same,Tmax,[3],18.7 ± 4.04 days
same,half-life,[3],25.5 days
same,AUC(0-t),"male, beagle, dog, plasma, sc, 6 mg/kg, mean ± SD, n = 3 dogs, SC 6 mg/kg, solution V, 300 mg/mL, read-out: AUC0-24 h",0.304 ± 0.028 µM·h
same,AUC(0-t),"male, beagle, dog, plasma, sc, 6 mg/kg, mean ± SD, n = 3 dogs, SC 6 mg/kg, solution V, 300 mg/mL, read-out: AUC0-168 h",5.07 ± 0.5 µM·h
same,AUC(0-t),"male, beagle, dog, plasma, sc, 6 mg/kg, mean ± SD, n = 3 dogs, SC 6 mg/kg, solution V, 300 mg/mL, read-out: AUC0-672 h",65.6 ± 9.9 µM·h
same,AUC(0-t),"male, beagle, dog, plasma, sc, 6 mg/kg, mean ± SD, n = 3 dogs, SC 6 mg/kg, solution V, 300 mg/mL, read-out: AUC0-1344 h",97.4 ± 12.7 µM·h
same,AUC(0-t),"male, beagle, dog, plasma, sc, 6 mg/kg, mean ± SD, n = 3 dogs, SC 6 mg/kg, solution V, 300 mg/mL, read-out: AUC0-1680 h",103 ± 12 µM·h
